Several values for one entry are separate records, joined by “and”; a condition that tells them apart may be missing. Identical values can stand only once. Entries after “also recorded” stand apart in the source; their conditions may differ. Like-named read-outs stand apart in the source and are kept apart here.
Legend:
human A1AR = human A1AR (Homo sapiens (Human), UniProt P30542); assay: Binding assay to the human A1AR ([3H]R-PIA); conditions: 1 h, 10 μM, CHO cells, read-out: hA1AR % displ. at 10 μM
human A1AR, sequence (P30542 whole entry): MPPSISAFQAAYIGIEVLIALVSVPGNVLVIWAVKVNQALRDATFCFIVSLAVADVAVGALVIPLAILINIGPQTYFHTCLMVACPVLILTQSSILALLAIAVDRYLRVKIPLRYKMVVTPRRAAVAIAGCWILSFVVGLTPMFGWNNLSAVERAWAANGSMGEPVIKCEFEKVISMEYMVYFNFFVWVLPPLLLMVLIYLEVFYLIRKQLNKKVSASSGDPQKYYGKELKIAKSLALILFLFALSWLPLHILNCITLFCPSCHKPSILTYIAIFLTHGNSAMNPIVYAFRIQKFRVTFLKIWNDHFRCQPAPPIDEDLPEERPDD
Experimental: (§1) CHO (Chinese hamster ovary) cells expressing the recombinant human ARs (HEK-293 cells were used for the human A2AAR) were cultured in DMEM and F12 (1:1) supplemented with 10% fetal bovine serum, 100 units/ml penicillin, […] streptomycin and 2 μmol/ml glutamine. Cells were harvested by trypsinization. After homogenization and suspension, cells were centrifuged at 500 g for 10 min, and the pellet was re-suspended in 50 mM Tris.HCl buffer (pH 7.4) containing 10 mM MgCl2. The suspension was homogenized with an electric homogenizer for 10 sec, and was then re-centrifuged at 20,000 g for 20 min at 4° C. The resultant pellets were resuspended in buffer in the presence of 3 Units/mL adenosine deaminase, and the suspension was stored at −80° C. until the binding experiments. The protein concentration was measured using the Bradford assay.
For binding to the human A1AR, [^3H]R-PIA (2 nM) was incubated with membranes (40 μg/tube) from CHO cells stably expressing the human A1AR at 25° C. for 60 min in 50 mM Tris.HCl buffer (pH 7.4; MgCl2, 10 mM) in a total assay volume of 200 μL. Nonspecific binding was determined using 10 μM of N^6-cyclopentyladenosine. For human A2A AR binding, membranes (20 μg/tube) from HEK-293 cells stably expressing the human A2A AR were incubated with 15 nM [^3H]CGS21680 at 25° C. for 60 min in 200 μL of 50 mM Tris.HCl, pH 7.4, containing 10 mM MgCl2. N-5′-ethyluronamidoadenosine (10 μM) was used to define nonspecific binding. Reaction was terminated by filtration with GF/B filters.

hA2BAR = hA2BAR (Homo sapiens (Human), UniProt P29275); assay: Effect on NECA-induced cyclic AMP accumulation at A2B receptor; note: NECA (150 nM)-induced cyclic AMP accumulation; format: cell-based; conditions: read-out: hA2BAR % inhib. at 10 μM
hA2BAR, sequence (P29275 whole entry): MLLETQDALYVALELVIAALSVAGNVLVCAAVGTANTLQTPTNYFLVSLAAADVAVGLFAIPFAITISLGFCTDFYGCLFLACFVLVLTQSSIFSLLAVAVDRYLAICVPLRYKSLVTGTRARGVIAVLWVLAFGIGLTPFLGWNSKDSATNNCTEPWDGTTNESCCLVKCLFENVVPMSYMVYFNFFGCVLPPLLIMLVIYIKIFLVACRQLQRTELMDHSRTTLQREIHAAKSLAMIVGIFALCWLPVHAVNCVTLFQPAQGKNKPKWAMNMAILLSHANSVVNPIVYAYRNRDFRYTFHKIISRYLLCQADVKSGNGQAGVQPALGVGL

human A3AR = human A3AR (Homo sapiens (Human), UniProt P0DMS8); assay: Competitive binding assay to the human A3AR ([125I]I-AB-MECA)
human A3AR, sequence (P0DMS8 whole entry): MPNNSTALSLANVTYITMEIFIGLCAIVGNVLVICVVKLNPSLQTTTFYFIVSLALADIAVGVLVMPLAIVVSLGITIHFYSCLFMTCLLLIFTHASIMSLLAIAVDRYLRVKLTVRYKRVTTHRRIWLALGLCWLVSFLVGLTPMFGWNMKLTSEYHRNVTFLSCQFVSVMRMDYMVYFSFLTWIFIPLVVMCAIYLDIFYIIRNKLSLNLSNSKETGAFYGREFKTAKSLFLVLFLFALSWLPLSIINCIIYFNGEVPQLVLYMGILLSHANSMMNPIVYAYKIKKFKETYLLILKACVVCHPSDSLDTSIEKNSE
Experimental: as §1
Each tube in the competitive binding assay contained 100 μl membrane suspension (20 μg protein), 50 μl [^125I]-AB-MECA (0.5 nM), and 50 μl of increasing concentrations of the test ligands in Tris.HCl buffer (50 mM, pH 8.0) containing 10 mM MgCl2, 1 mM EDTA. Nonspecific binding was determined using 10 μM of 5′-N-ethylcarboxamidoadenosine in the buffer. The mixtures were incubated at 25° C. for 60 min. Binding reactions were terminated by filtration through Whatman GF/B filters under reduced pressure using a MT-24 cell harvester (Brandell, Gaithersburgh, Md., USA). Filters were washed three times with 9 mL ice-cold buffer. Radioactivity was determined in a Beckman 5500B γ-counter.

human A3ARs [1] = biological target: T1, human A3ARs (Homo sapiens (Human), UniProt P0DMS8); assay: Dissociation kinetics of [125I]I-AB-MECA from human A3ARs; format: binding
T1 sequence (P0DMS8 whole entry): as above
Experimental: The dissociation of [^125I]I-AB-MECA was measured as follows. Membranes (20 μg) were preincubated at 25° C. with 0.5 nM [^125I]I-AB-MECA, in a total volume of 100 μl of Tris-HCl buffer (50 mM, pH 8.0) containing 10 mM MgCl2, and 1 mM EDTA for 60 min. The dissociation was then initiated by the addition of 3 μM Cl-IB-MECA with or without allosteric modulators. The time course of dissociation of total binding was measured by rapid filtration at appropriate time intervals. Nonspecific binding was measured after 60-min incubation in the presence of 3 μM Cl-IB-MECA. Further assay was as described above.

human A3ARs [2] = biological target: T1, human A3ARs; assay: Cyclic AMP accumulation assay, efficacy at hA3AR; format: cell-based; conditions: compared to maximal effect by 2-Cl-IB-MECA alone (control = 100%)
Experimental: Intracellular cyclic AMP levels were measured with a competitive protein binding method (Nordstedt and Fredholm, 1990). CHO cells that expressed recombinant human A3ARs were harvested by trypsinization. After centrifugation and resuspension in medium, cells were plated in 24-well plates in 0.5 ml medium. After 24 hr, the medium was removed and cells were washed three times with 1 ml DMEM, containing 50 mM HEPES, pH 7.4. Cells were then treated with agonists and/or test compounds in the presence of rolipram (10 μM) and adenosine deaminase (3 units/ml). After 45 min forskolin (10 μM) was added to the medium, and incubation was continued an additional 15 min. The reaction was terminated by removing the supernatant, and cells were lysed upon the addition of 200 μL of 0.1 M ice-cold HCl. The cell lysate was resuspended and stored at −20° C. For determination of cyclic AMP production, protein kinase A (PKA) was incubated with [^3H]cyclic AMP (2 nM) in K2HPO4/EDTA buffer (K2HPO4, 150 mM; EDTA, 10 mM), 20 μL of the cell lysate, and 30 μL 0.1 M HCl or 50 μL of cyclic AMP solution (0-16 pmol/200 μL for standard curve). Bound radioactivity was separated by rapid filtration through Whatman GF/C filters and washed once with cold buffer. Bound radioactivity was measured by liquid scintillation spectrometry.

hA3AR = hA3AR (Homo sapiens (Human), UniProt P0DMS8); assay: GTPγS binding at hA3AR; format: biochemical
hA3AR, sequence (P0DMS8 whole entry): as above

myeloid system = assay: Effect on the myeloid system of naïve mice (differential blood count); format: in vivo; conditions: naïve ICR mice, orally 100 μg/kg thrice daily for two days; blood 24 and 48 hours after last administration; vs control
Experimental: A stock solution of imidazoquinoline derivative 45 was prepared by dissolving the same in DMSO. Further dilutions for treatment were performed in PBS. As a control, an equivalent amount of DMSO in PBS was used.
To test the effect of imidazoquinoline derivative 45 on the myeloid system, the compound was orally administered at a dose of 100 μg/kg, thrice daily to ICR mice, for two consecutive days. Blood samples were withdrawn 24 and 48 hours after the last drug administration. A differential blood count was performed.

Clc1ccc(Nc2nc3ccccc3c3[nH]c(C4CCCCC4)nc23)cc1Cl [Compound 45, N-(3,4-Dichloro-phenyl)-2-cyclohexyl-1H-imidazo[4,5-c]quinolin-4-amine]
inhibition at 10 µM (human A1AR; [3H]R-PIA, Table 3): < 10%
inhibition at 10 µM (human A1AR; [3H]R-PIA, Table 4): < 10%
inhibition at 10 µM (human A1AR; [3H]R-PIA (2.0 nM), Table 2): -2%
inhibition at 10 µM (hA2BAR): -5.6%
hA3AR % displ. at 10 μM (human A3AR; 10 μM, [125I]I-AB-MECA, CHO cells, Table 3): 45%
inhibition at 10 µM (human A3AR; 1 h, 10 μM, [125I]I-AB-MECA (0.5 nM), CHO cells, Table 2, read-out: hA3AR % displ. at 10 μM): 45%
affinity to orthosteric versus allosteric binding sites (selective affinity) (human A3AR; orthosteric sites of A1, A2A, A2B, A3 receptors vs allosteric site of A3 adenosine receptor): selective affinity; also recorded: best separation between orthosteric and allosteric recognition
activity at 10 µM (human A3ARs [1]; 0.5 h, % decrease of dissociation at 30 min, residual binding of [125I]AB-MECA after 30 min = 100%, Table 2, read-out: hA3AR Ag. Dissociation at 10 μM): 173 ± 5%
hA3R Ag. Dissociation (%) at 10 μM (human A3ARs [1]; % decrease of [125I]I-AB-MECA dissociation at 30 min (control = 100%), Table 3): 173 ± 5%
% Increase of efficacy at hA3AR at 10 μM (human A3ARs [2]): 145 ± 7%
Enhancement of GTPγS binding (%) at hA3AR at 10 μM (hA3AR; 10 μM Cl-IB-MECA alone = 100%, Table 3): 194 ± 11% and 177%
Relative efficacy (%) at hA3AR at 10 μM (GTPγS binding) in absence of agonist (hA3AR; absence of agonist, 10 μM Cl-IB-MECA alone = 100%): 6%
Enhancement of GTP[…]S binding (%) at hA3AR at 10 μM (hA3AR; compared to maximal effect by 2-Cl-IB-MECA alone (control), Table 4): 194 ± 11%
number of neutrophils (myeloid system): increased
number of white blood cells (WBC) (myeloid system): increased
